Test results taken from patent US20080103049A1, “Benzoyl-Substituted Serineamides” (BSDG Aktiengesellschaft, priority 2004, published 2008).

Experiments:
Type in all cases: in vivo
[1] = system: Amaranthus retroflexus (pig weed); experiment: greenhouse post-emergence herbicidal test, pig weed; conditions: for post-emergence action against pig weed: application rate 0.5 kg/ha a.s.; for post-emergence control of pig weed: application rate 1.0 kg/ha a.s.
Description: (§1) The culture containers used were plastic flowerpots containing loamy sand with approximately 3.0% of humus as the substrate. The seeds of the test plants were sown separately for each species.
(§2) For the post-emergence treatment, the test plants were first grown to a height of 3 to 15 cm, depending on the plant habit, and only then treated with the active ingredients which had been suspended or emulsified in water. For this purpose, the test plants were either sown directly and grown in the same containers, or they were first grown separately as seedlings and transplanted into the test containers a few days prior to treatment. The rate of application for the post-emergence treatment was 1.0 or 0.5 kg/ha of a.s. (active substance).
(§3) Depending on the species, the plants were kept at 10-25° C. or 20-35° C. The test period extended over 2 to 4 weeks. During this time, the plants were tended, and their response to the individual treatments was evaluated.
(§4) Evaluation was carried out using a scale from 0 to 100. 100 means no emergence of the plants, or complete destruction of at least the aerial parts, and 0 means no damage, or normal course of growth.
(§5) The plants used in the greenhouse experiments belonged to the following species: […]

[2] = system: Chenopodium album (lambsquarters); experiment: greenhouse post-emergence herbicidal test, lambsquarters; conditions: for post-emergence action against lambsquarters: application rate 0.5 kg/ha a.s.; for post-emergence control of lambsquarters: application rate 1.0 kg/ha a.s.
Description: as §1, §2, §3, §4, §5

[3] = system: Setaria viridis (green foxtail); experiment: greenhouse post-emergence herbicidal test, green foxtail; conditions: for post-emergence action against green foxtail: application rate 0.5 kg/ha a.s.; for post-emergence control of green foxtail: application rate 1.0 kg/ha a.s.
Description: as §1, §2, §3, §4, §5

CNC(=O)C(NC(=O)c1ccc(F)cc1C(F)(F)F)C(OC(=O)N(C)C)c1cccs1 (mixture of isomers) [Compound 3.10]
very good: post-emergence action against pig weed [1] | post-emergence action against lambsquarters [2] | post-emergence action against green foxtail [3]

CNC(=O)C(NC(=O)c1ccc(F)cc1C(F)(F)F)C(OC(=O)N(C)C)c1ccsc1 (mixture of isomers) [Compound 3.11]
very good: post-emergence control of pig weed [1] | post-emergence control of lambsquarters [2] | post-emergence control of green foxtail [3]

CNC(=O)C(NC(=O)c1ccccc1C(F)(F)F)C(O)c1ccn(C)n1 (mixture of isomers) [Compound 3.14]
very good: post-emergence control of pig weed [1] | post-emergence control of lambsquarters [2] | post-emergence control of green foxtail [3]

CNC(=O)C(NC(=O)c1ccccc1C(F)(F)F)C(OC(=O)N(C)C)c1ccn(C)n1 (mixture of isomers) [Compound 3.20]
very good: post-emergence control of pig weed [1] | post-emergence control of lambsquarters [2] | post-emergence control of green foxtail [3]

CNC(=O)C(NC(=O)c1ccccc1C(F)(F)F)C(OC(=O)N(C)C)c1ccn(C)n1 (mixture of isomers) [Compound 3.21]
very good: post-emergence action against pig weed [1] | post-emergence action against lambsquarters [2] | post-emergence action against green foxtail [3]

CNC(=O)C(NC(=O)c1ccc(F)cc1C(F)(F)F)C(O)c1ccc(Cl)s1 (mixture of isomers) [Compound 3.28]
very good: post-emergence action against pig weed [1] | post-emergence action against lambsquarters [2] | post-emergence action against green foxtail [3]

CNC(=O)C(NC(=O)c1ccc(F)cc1C(F)(F)F)C(O)c1ccccn1 (mixture of isomers) [Compound 3.36]
very good: post-emergence action against pig weed [1] | post-emergence action against lambsquarters [2] | post-emergence action against green foxtail [3]

CNC(=O)C(NC(=O)c1ccc(F)cc1C(F)(F)F)C(O)c1cccnc1Cl (mixture of isomers) [Compound 3.39]
very good: post-emergence control of pig weed [1] | post-emergence control of lambsquarters [2] | post-emergence control of green foxtail [3]

CNC(=O)C(NC(=O)c1ccc(F)cc1C(F)(F)F)C(O)c1cccnc1Cl (mixture of isomers) [Compound 3.40]
very good: post-emergence control of pig weed [1] | post-emergence control of lambsquarters [2] | post-emergence control of green foxtail [3]

CNC(=O)C(NC(=O)c1ccc(F)cc1C(F)(F)F)C(O)c1ccc[n+]([O-])c1Cl (mixture of isomers) [Compound 3.41]
very good: post-emergence action against pig weed [1] | post-emergence action against lambsquarters [2] | post-emergence action against green foxtail [3]

CNC(=O)C(NC(=O)c1ccc(F)cc1C(F)(F)F)C(OC(C)=O)c1ccccn1 (mixture of isomers) [Compound 3.53]
very good: post-emergence action against pig weed [1] | post-emergence action against lambsquarters [2] | post-emergence action against green foxtail [3]

CNC(=O)C(NC(=O)c1ccc(F)cc1C(F)(F)F)C(OC(=O)N(C)C)c1ccc(Cl)s1 (mixture of isomers) [Compound 3.66]
very good: post-emergence action against pig weed [1] | post-emergence action against lambsquarters [2] | post-emergence action against green foxtail [3]

CNC(=O)C(NC(=O)c1ccc(F)cc1C(F)(F)F)C(OC(=O)N(C)C)c1ccccn1 (mixture of isomers) [Compound 3.69]
very good: post-emergence action against pig weed [1] | post-emergence action against lambsquarters [2] | post-emergence action against green foxtail [3]

CNC(=O)C(NC(=O)c1ccc(F)cc1C(F)(F)F)C(OC(C)=O)c1cccnc1Cl (racemic) [Compound 3.56]
very good: post-emergence action against pig weed [1] | post-emergence action against lambsquarters [2] | post-emergence action against green foxtail [3]

CNC(=O)C(NC(=O)c1ccc(F)cc1C(F)(F)F)C(OC(C)=O)c1cnccc1Cl (racemic) [Compound 3.57]
very good: post-emergence action against pig weed [1] | post-emergence action against lambsquarters [2] | post-emergence action against green foxtail [3]

CNC(=O)C(NC(=O)c1ccc(F)cc1C(F)(F)F)C(OC(C)=O)c1ccncc1Cl (racemic) [Compound 3.59]
very good: post-emergence action against pig weed [1] | post-emergence action against lambsquarters [2] | post-emergence action against green foxtail [3]

CNC(=O)C(NC(=O)c1ccc(F)cc1C(F)(F)F)C(OC(=O)N(C)C)c1cccnc1F (racemic) [Compound 3.71]
very good: post-emergence action against pig weed [1] | post-emergence action against lambsquarters [2] | post-emergence action against green foxtail [3]

CNC(=O)C(NC(=O)c1ccc(F)cc1C(F)(F)F)C(OC(=O)N(C)C)c1cnccc1Cl (racemic) [Compound 3.74]
very good: post-emergence action against pig weed [1] | post-emergence action against lambsquarters [2] | post-emergence action against green foxtail [3]

CNC(=O)C(NC(=O)c1ccc(F)cc1C(F)(F)F)C(OC(=O)N(C)C)c1ccc[n+]([O-])c1Cl (racemic) [Compound 3.75]
very good: post-emergence action against pig weed [1] | post-emergence action against lambsquarters [2] | post-emergence action against green foxtail [3]

CC[Si](CC)(CC)OC(c1ccsc1)C(NC(=O)c1ccc(F)cc1C(F)(F)F)C(=O)NC [Compound 3.13, (2S,3R)-threo-4-Fluoro-N-(1-methylcarbamoyl-2-thiophen-3-yl-2-triethylsilanyloxyethyl)-2-trifluoromethylbenzamide]
very good: post-emergence control of pig weed [1] | post-emergence control of lambsquarters [2] | post-emergence control of green foxtail [3]

CNC(=O)[C@@H](NC(=O)c1ccc(F)cc1C(F)(F)F)C(OC(=O)CSC)c1cccs1 (stereo partly drawn) [Compound 3.63]
very good: post-emergence action against pig weed [1] | post-emergence action against lambsquarters [2] | post-emergence action against green foxtail [3]

CNC(=O)[C@@H](NC(=O)c1ccc(F)cc1C(F)(F)F)C(OC(=O)N(C)C)c1cccs1 (stereo partly drawn) [Compound 3.65]
very good: post-emergence action against pig weed [1] | post-emergence action against lambsquarters [2] | post-emergence action against green foxtail [3]

CC[Si](CC)(CC)OC(c1ccc(Cl)s1)[C@H](NC(=O)c1ccc(F)cc1C(F)(F)F)C(=O)NC (stereo partly drawn) [Compound 3.79]
very good: post-emergence control of pig weed [1] | post-emergence control of lambsquarters [2] | post-emergence control of green foxtail [3]
